Patent US8309550B2, “Kinase inhibitors and their use as pharmaceutical agents” (Shanghai Genomics, Inc., priority 2011, dated 2012)
Where two headings read alike, the source gives them in different places.

Legend:
[1] = Pharmacokinetic determination, rat IV/PO study; format: in vivo; details: for MRT inf: read-out: MRT(0-∞)
Protocol: Male Sprague-Dawley rats were maintained on food and water ad libitum. They were housed in an individual ventilated caging system. The test compound at a dose of 5 mg/kg and 20 mg/kg was given i.v. and orally to SD rats respectively (3 animals per group). The appropriate quantity compound with free base (Wt.: 346.1) was accurately weighted into a tube and dissolved in NMP, vortexed to get a clear solution. 0.015N HCl in Saline was added and the solution was vortexed to yield a clear and colorless solution at 1 mg/mL for both intravenous and oral administration. The concentration of the test compound in the dosing solution was reconfirmed by HPLC method. […] Plasma samples were collected from retro-orbital puncture at pre-dose and 0.083, 0.25, 0.5, 1, 2, 4, 6, 8, and 24 hours post-dose. All samples and the dose formulation were stored at −20° C. until bioanalysis. The concentrations of the test compound in plasma were determined using a high performance liquid chromatography/mass spectrometry (HPLC/MS/MS) method.

lung carcinoma (H460) = experiment: Inhibition of tumor growth, NCI-H460 in SCID-bg mice; format: in vivo; details: oral once a day
Protocol: Tumor type: lung carcinoma (H460)
Treatment: Single PO dose for 21 days (starting at day 7 following tumor inoculation)
Endpoint: tumor volume and mean luciferase activity by Xenogen (Caliper) machine:
SCID-bg mice were implanted with NCI-H460 cells at 5×10^6 cells/mouse on Day 0. Compound 18 treatment began on Day 7. […] In model group, the vehicle was used instead of compound 18. Tumor volume and mean luciferase activity by Xenogen technology were measured once per there days.

[2] = system: Xenograft tumor models (HT-29, H460, Molt-4, PC-3M, HL60); experiment: Xenograft studies with human tumor cell lines; format: in vivo, BALB/c nude mice; details: i.p, qd, 21 days, dosage from 12.5 mg/kg to 100 mg/kg; significant with p<0.05 (T-test)
Protocol: Female BALB/c nude mice from SHANGHAI SLAC LABORATORY ANIMAL CO with age of 5 to 6 weeks and body weight of 19 to 20 g were used in the study. Autoclaved water and irradiated food were provided ad libitum, and animals were maintained on a 12-hour light and 12-hour dark cycle. Cages, bedding, and water bottles were autoclaved before use and changed weekly. The health of all animals was determined by daily gross observation of experimental animals, and analyses of blood samples of sentinel animals housed on shared shelf racks. All animals were allowed to acclimate and recover from any shipping-related stress for a minimum of 72 hours before experimental use. All animal experiments were conducted according to the guidelines of Chinese.
Xenograft tumor models were established with human tumor cell lines. […] Tumor growth was monitored twice per week until the tumor reached to a volume of 100 mm^3. […]
Mortality checks were conducted daily. Body weight of the mice was determined twice a week. […] Weight loss was calculated as percentage change in mean group body weight using the following formula: [(W−W0)/W0]×100, where ‘W’ represents mean body weight of the treated group at a particular day and ‘W0’ represents mean body weight of the same treated group at initiation of treatment. Tumor volumes (in mm3) were calculated after 21 days drug administration. […]

[3] = male, Sprague-Dawley, plasma, IV (5 mg/kg)
[4] = male, Sprague-Dawley, plasma, PO (20 mg/kg)

F* ([1]; PO (20 mg/kg) vs IV (5 mg/kg)) [%]	AUC(0-inf) [1, 3] [µg·h/mL]	AUC(0-t) [1, 3] [µg·h/mL]	Cmax [1, 3] [µg/mL]	Tmax [1, 3] [min]	clearance [1, 3] [L/h/kg]	half-life [1, 3] [min]	MRT inf [1, 3] [min]	Vd ([1]; male, Sprague-Dawley, plasma, IV (5 mg/kg), read-out: Vz) [L/kg]	AUC(0-inf) [1, 4] [µg·h/mL]	AUC(0-t) [1, 4] [µg·h/mL]	Cmax [1, 4] [µg/mL]	Tmax [1, 4] [min]	half-life [1, 4] [min]	MRT inf [1, 4] [min]	Structure (SMILES)	oral availability and t 1/2 after oral administration (in words) ([1]; oral administration)	% Tumor Growth Inhibition at Day 21 (lung carcinoma (H460); 20 mg/kg) [%]	% Tumor Growth Inhibition at Day 21 (lung carcinoma (H460); 150 mg/kg) [%]	anti-tumor activities in xenograft mice [2]
67.51	0.545	0.543	0.963	4.98	9.38	42	40.2	9.6	1.49	1.47	0.895	34.8	74.4	100	CCn1cc(-c2ccnc(Nc3cccc(S(N)(=O)=O)c3)n2)c2cccnc21 [Compound 18, 3-(4-(1-Ethyl-1H-pyrrolo[2,3-b]pyridin-3-yl)pyrimidin-2-ylamino)benzenesulfonamide]	This result showed that compound 18 has good oral availability and t 1/2 after oral administration.	41.3	56.5	–
–	–	–	–	–	–	–	–	–	–	–	–	–	–	–	CCCn1cc(-c2ccnc(Nc3ccc(C)c(S(=O)(=O)N4CCOCC4)c3)n2)c2ccncc21 [Compound 102, N-(4-Methyl-3-(morpholinosulfonyl)phenyl)-4-(1-propyl-1H-pyrrolo[2,3-c]pyridin-3-yl)pyrimidin-2-amine]	–	–	–	showed anti-tumor activities
